Measured values as given in PubChem BioAssay (NCI).
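All cell lines were grown in 96-well plates and treated with compound for 48 hours. GI50 is the concentration that inhibits growth by half. TGI marks complete inhibition of growth.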

How the values were obtained:
Assay in all cases: DTP human tumour cell line panel, 48 h
RPMI-8226 leukemia = system: RPMI-8226 leukemia
T-47D breast = system: T-47D breast
OVCAR-5 ovarian = system: OVCAR-5 ovarian
MOLT-4 leukemia = system: MOLT-4 leukemia
UO-31 renal = system: UO-31 renal
SF-539 CNS = system: SF-539 CNS
TK-10 renal = system: TK-10 renal
PC-3 prostate = system: PC-3 prostate
A498 renal = system: A498 renal
EKVX NSCLC = system: EKVX NSCLC

SMILES	TGI (RPMI-8226 leukemia) [µM]	TGI (T-47D breast) [µM]	TGI (OVCAR-5 ovarian) [µM]	TGI (MOLT-4 leukemia) [µM]	TGI (UO-31 renal) [µM]	TGI (SF-539 CNS) [µM]	TGI (TK-10 renal) [µM]	TGI (PC-3 prostate) [µM]	TGI (A498 renal) [µM]	TGI (EKVX NSCLC) [µM]	GI50 (T-47D breast) [µM]	GI50 (OVCAR-5 ovarian) [µM]	GI50 (MOLT-4 leukemia) [µM]	GI50 (UO-31 renal) [µM]	GI50 (TK-10 renal) [µM]	GI50 (PC-3 prostate) [µM]	GI50 (EKVX NSCLC) [µM]	GI50 (RPMI-8226 leukemia) [µM]	GI50 (SF-539 CNS) [µM]	GI50 (A498 renal) [µM]
C=C(Br)C(C)(Br)CCC(Br)C(C)(C)Cl (stereo not given)	58.4	44.1	39.7	24.5	32	31.6	32.7	36.3	45.5	51.3	–	–	–	–	–	–	–	–	–	–
O=C1NCC2(CCN(CCCC3(c4ccc(F)cc4)OCCO3)CC2)N1c1ccccc1	> 100	> 100	> 100	> 100	–	> 100	> 100	> 100	> 100	> 100	–	–	–	–	–	–	–	–	–	–
Cc1c2c(nn1-c1ccc(S(=O)(=O)/N=C3\SCCC(=O)N3c3ccccc3)cc1)-c1ccccc1CC2	–	> 100	> 100	> 100	> 100	–	> 100	> 100	–	> 100	> 100	> 100	> 100	> 100	> 100	> 100	94	–	–	–
Nc1ncnc2c1nnn2C1OC(CO)C(O)C1O (stereo not given)	5.71	4.81	15.4	22.2	6.02	9.04	3.39	5.38	5.68	27.5	0.265	–	–	–	0.151	0.247	–	–	–	–
Cc1cc2c(cc1Cl)SC(N(N(C)C)S(=O)(=O)c1ccc(Cl)cc1)=NS2(=O)=O	> 100	> 100	> 100	> 100	> 100	45.8	> 100	> 100	37.6	79.6	15.8	53.8	35	28.3	43.9	22.4	26.6	12.5	18.2	15.8
CCOC(=O)c1cc2nc3ccccc3c(=O)n2c2ccccc12	> 10	> 10	> 10	–	> 10	> 10	> 10	> 10	> 10	> 10	–	–	–	–	–	–	–	–	–	–
O=C(/C=C/c1ccc(Cl)cc1)c1ccc(Nc2ccnc3cc(Cl)ccc23)cc1	> 30.7	> 100	68.5	> 100	> 100	> 100	> 100	> 100	> 71.8	> 100	> 55.7	22.1	5.46	> 74.7	> 84.7	> 53.6	> 84.6	2.08	> 63.3	> 44.7
CCN(CC)c1ccc(-c2cc(-c3cc(OC)c(OC)c(OC)c3)nc(N3CCOCC3)c2C#N)cc1	44.7	> 100	> 68.2	> 100	> 100	12.7	> 100	> 100	39.5	> 100	1.29	1.42	2.45	2.99	15.3	1.27	2.64	0.0387	1.36	2.88
N#CC(C#N)=CNC(N)=S	> 100	> 100	> 100	> 100	–	> 100	–	> 100	> 100	> 100	–	–	–	–	–	–	–	–	–	–
ClCc1cccc(Cn2cnc3ncnc(Cl)c32)c1	34.9	0.497	19.8	29.4	3.11	36	3.3	5.32	35.9	29.7	0.212	6.74	10.6	1.54	1.76	2.13	13.7	13.7	19.9	18.4
O=[N+]([O-])C(/C=C(\Cl)n1nnc2ccccc21)=C(/Cl)n1nnc2ccccc21	> 100	> 100	> 100	> 100	> 100	> 100	> 100	> 100	> 100	> 100	–	–	–	–	–	–	–	–	–	–
Fc1cc2[nH]ncc2c2c3c(c(-c4cn[nH]c4)nc12)CCCC3	13.6	> 21.5	12.2	6.15	3.87	2.82	> 27.8	33.7	1.64	3.98	1.26	2.13	1.72	0.896	1.21	1.77	0.795	1.08	1.14	0.365
Cc1ccc(S(=O)(=O)Nc2ccccc2C(=O)c2ccc(C)c(C)c2)cc1	> 100	> 100	> 100	–	> 100	> 100	> 100	> 100	> 100	> 100	–	–	–	–	–	–	–	–	–	–
C=C1NC(=O)C(C(C)CC)NC(=O)C2CSCC(NC(=O)CCC(=O)O)C(=O)NC(Cc3ccccc3)C(=O)NC(C)C(=O)NC(CC(C)CC)C(=O)NC(C(=O)NC(Cc3ccccc3)C(=O)N3CCCC3C(=O)N2)C(C)OC(=O)C(CO)NC(=O)C(C(O)COC)N(C)C(=O)C(C(C)C)NC(=O)C(CC(C)CC)NC1=O (stereo not given)	> 6	> 6	> 6	> 6	> 6	0.279	> 6	> 6	0.512	> 6	0.0242	0.0327	0.0552	0.567	0.95	0.0265	0.046	0.0217	0.00868	0.00667
CC[C@H](Nc1ncnc2nc[nH]c12)c1oc2ccccc2c(=O)c1-c1cccc(F)c1	> 100	> 100	> 100	49.1	58	> 100	95.6	> 100	–	> 100	8.24	42.5	13.1	5.93	19.5	12.4	31.8	14.5	31.4	–
